Laboratory results taken from US20120283096A1, “AGENT FOR IMPROVING PLANT GROWTH, SEEDS, AND METHOD FOR IMPROVING PLANT GROWTH” (Incorporated Administrative Agency National Agricu lture …, priority 2010, published 2012).

Tests used:
paddy rice [1] = assay: Effect of sulfate ions in paddy soil on seedling establishment (Example 1-1, FIG. 1); format: in vivo
Description: The effect of concentrations of sulfate ions, which serve as a substrate for sulfide ions, in the soil solution on the percentage of seedling establishment were examined for each of the following cases: unsterilized paddy soil placed at a constant temperature of 20° C.; unsterilized paddy soil placed at a constant temperature of 30° C., unsterilized paddy soil placed in an outdoor location (at a mean temperature of 25.4° C. for the duration of examination); and sterilized paddy soil placed at a constant temperature of 20° C.
First, ammonium sulfate solutions in different concentrations were added to samples of paddy humid soil (obtained from a paddy field in Chikugo City, Fukuoka Prefecture, Japan; refrigerated in the form of humid soil until just before its use) with a soil-to-liquid ratio of 1:1.5, so that the resulting supernatant liquids above the samples of soil thus adjusted had varying concentrations of sulfate ions. The amounts of ammonium sulfate added to the samples of soil were equivalent to 0, 2, 4, 7, 10, 15, and 20 g/m^2 in terms of nitrogen, respectively, on the condition that the weight of dry soil is 100 kg/m^2. At the same time as ammonium sulfate, potassium in an amount of 5 g/m^2 in terms of potassium oxide was added as potassium chloride. Before the addition of the solutions to the samples of soil, some of the soil had been sterilized by being autoclaved for one hour at 121° C.
Each of the samples of soil thus adjusted was placed into a container (in the shape of a cylinder approximately 7 cm in diameter) in an amount equivalent to 120 g of dry soil, shaken for approximately one hour, and left at rest for two days at 4° C. On this condition, the resulting soil layer was approximately 4 cm thick and the resulting water layer above the soil surface was approximately 1 cm thick. Paddy rice seeds (branded as Hinohikari) were sterilized by being soaked in 70% ethanol for ten minutes and then in a fivefold diluted solution of sodium hypochlorite (purchased from Wako Pure Chemical Industries, Ltd.) for ten minutes. The paddy rice seeds were then slightly germinated by being soaked in water at 10° C. for five days and then in water at 30° C. for two days. The germinated unhusked rice thus obtained was used in the following testing.
Nine paddy rice seeds per container were planted at a depth of 15 mm at intervals of approximately 2 cm in each of the samples of soil thus adjusted, and the seed holes were closed by lightly shaking the sample of soil. The samples of unsterilized soil were left at rest at a constant temperature of 20° C. or 30° C., and the samples of sterilized soil were left at a constant temperature of 20° C. in incubators in which fluorescent lights were on for twelve hours per day. […]

sulfide ion generation = assay: Blackening (ferric sulfide) of areas around paddy seeds versus sulfate ion concentration (FIG. 2); settings: unsterilized soil, 30° C., one week after seeding, supernatant concentration
Description: In the same manner as above, ammonium sulfate was applied to samples of unsterilized soil in amounts of 0, 0.75, 1.5, and 3 mol/m^2, respectively, and the samples of unsterilized soil were placed at rest at a constant temperature of 30° C. The supernatant liquids obtained after shaking the samples of soil thus adjusted had sulfate ion concentrations shown in FIG. 2. However, since methylene blue decolorizes in a reduced state, methylene blue weighing 0.1% of dry soil was added to each sample of soil so that a reduced state of the soil could be detected. […] It should be noted that methylene blue is known to decolorize at an oxidation-reduction potential of 0.05 V or lower with a pH of approximately 6. […] Therefore, it is judged that in this experimental environment, an oxidation-reduction potential as normalized with a pH of 7 is at least temporarily 0 mV or lower.

paddy rice [2] = assay: Seedling establishment of coated paddy seeds in submerged soil containers (Examples 4-1 to 4-4b, FIGS. 11, 14-19c); format: in vivo
Description: The germinated paddy seeds were soaked for one minute in a tenfold diluted solution of a commercially available laundry starch (manufactured by Rocket Soap Co., Ltd.; My Laundry Starch) containing approximately a little less than 10% by weight of polyvinyl alcohol, centrifuged at 1000 rpm for removal of the extra solution, and, immediately after that, lightly covered with different amounts of ammonium molybdophosphate, whereby seeds with different amounts of ammonium molybdophosphate were prepared.
(§1) It should also be noted that in each of FIGS. 14 through 15b, the horizontal axis represents the number of moles (mmol) of molybdenum or tungsten that adhered per gram of dry seed. In each of FIGS. 14 through 15b, the dots correspond to the numbers of moles of 0, 0.02, 0.05, 0.1, 0.2, 0.5, 1, and 2 mmol, starting from the left.
as §1, with “should” for “should also”, “16” for “14”, “18,” for “15b,”, “molybdenum” for “molybdenum or tungsten”
It should be noted that in FIG. 19a, the horizontal axis represents the number of moles (mmol) of molybdenum that adhered per gram of dry seed. In FIG. 19a, the dots correspond to the numbers of moles of 0, 0.02, 0.05, 0.1, 0.2, 0.5, 1, and 2 mmol, starting from the left.
The resulting seeds were allowed to spend time in a sufficiently wet condition so that the iron rusted, and then allowed to further spend overnight. […] Six containers were allotted for each condition, and the proportion of seedling establishment and the standard error were examined. It should be noted that in FIG. 19b, the horizontal axis represents the number of moles (mmol) of molybdenum that adhered per gram of dry seed. In FIG. 19b, the dots correspond to the numbers of moles of 0, 0.02, 0.05, 0.1, 0.2, 0.5, 1, and 2 mmol, starting from the left.
Six containers were allotted for each condition, and the proportion of seedling establishment and the standard error were examined. It should be noted that in FIG. 19c, the horizontal axis represents the actual weight ratios of 25 wt % calcium peroxide that adhered with respect to the weight of dry seed. In FIG. 19c, the dots correspond to the actual weight ratios of 25 wt % calcium peroxide of 0, 0.01, 0.02, 0.05, 0.1, 0.2, 0.5, and 1 time, starting from the left.

barley = assay: Seedling establishment of barley seeds in humid soil (Example 6-1, FIG. 20a); format: in vivo; settings: 0.01 mmol to 0.5 mmol molybdenum per gram of dry seed, 20° C., after two weeks
Description: (§2) As in Example 4-1, ammonium sulfate in an equivalent amount of 10 g/m^2 in terms of nitrogen and potassium chloride equivalent to 5 g/m^2 of potassium as potassium oxide were added as a solution to paddy humid soil in terms of 100 kg/m^2 of dry soil with a soil-to-liquid ratio of 0.7. The soil was placed into each container (in the shape of a cylinder approximately 7 cm in diameter) in an amount equivalent to 100 g of dry soil. The soil surface was flattened by giving it a slight press with a flat plate. Then, the soil was left at rest for one day at 4° C. […] The seeds were then half-buried in the soil. After that, at a constant temperature of 20° C., the water level was kept by adding water to such an extent that the seeds were slightly covered with water. Six containers were allotted for each condition, and the proportion of seedling establishment (proportion of individual plants that survived) was measured after two weeks. It should be noted that in each of FIGS. 20a and 20b, the horizontal axis represents the number of moles (mmol) of molybdenum that adhered per gram of dry seed. In each of FIGS. 20a and 20b, the dots correspond to the numbers of moles of 0, 0.01, 0.02, 0.05, 0.1, 0.2, and 0.5 mmol, starting from the left. […]

paddy rice [3] = assay: Seedling establishment of coated paddy seeds planted in a paddy field (Example 4-5, FIG. 22); format: in vivo; settings: dry seeds coated with clay plus 0.1 mmol/g molybdenum; kept submerged, about one month after seeding; versus WITHOUT MATERIAL and oxygen generating agent (Cal)
Description: Dry paddy seeds (branded as Hinohikari) were prepared.
Separately, dry seeds (WITHOUT MATERIAL) coated solely with clay containing no molybdenum were also prepared. Furthermore, dry seeds (Cal) coated with an oxygen generating agent (Calper Powder 16, Hodogaya UPL Co., Ltd.) the same weight per dry seeds were also prepared. Calper Powder 16 is an oxygen generating agent composed mainly of calcium peroxide.
These dry seeds were planted in puddled soil in a paddy field in Chikugo City, Fukuoka Prefecture, by using a simultaneous puddling and planting point sowing machine. By preparing the seeds as described above and planting them by using a point sowing machine, the amount of seeding per unit area of the paddy field can be substantially uniformed. It should be noted that prior to soil puddling, 4 g/m^2 of ammonium sulfate as nitrogen and potassium sulfate containing potassium equivalent to 8 g/m^2 as potassium oxide had been applied to the paddy field. After seeding, the seeds were kept submerged without draining the water.

wheat = assay: Seedling establishment of wheat seeds in humid soil (Example 6-1, FIG. 20b); format: in vivo; settings: 0.01 mmol to 0.5 mmol molybdenum per gram of dry seed, 20° C., after two weeks
Description: as §2

paddy seeds = assay: Possibility of growth of paddy seeds in tank farming without soil (Example 3); settings: in vivo
Description: (§3) The decay-inhibiting effect of molybdenum-containing substances in tank farming without soil was examined.
(§4) The possibility of growth and the inhibition of decay were determined in the same manner as above.

decay of paddy seeds = assay: Decay-inhibiting effect in tank farming without soil (Example 3); settings: seeds covered with substance, soaked two weeks in water at 30° C.
Description: as §3, §4

soybean = assay: Seedling establishment of soybean seeds submerged for two days (Example 6a-1, FIG. 20e); format: in vivo; settings: 0.01 mmol to 0.5 mmol molybdenum per gram of dry seed, 25° C., versus untreated seeds
Description: Soil was prepared in the same manner as in Example 6-1. Next, soybean seeds (branded as Fukuyutaka) not subjected to treatment such as soaking in advance were soaked for one minute in a tenfold diluted solution of a commercially available laundry starch (manufactured by Rocket Soap Co., Ltd.; My Laundry Starch) containing approximately a little less than 10% by weight of polyvinyl alcohol. Then, the seeds were spin-dried for thirty seconds in a commercially available washing machine for removal of the extra water. […] These seeds were buried so that the upper edge of each seed was at the same height as the soil surface. In an artificially-lit (amount of light 0.4 mmol/m^2/s, lit for twelve hours per day) room at 25° C., water was added immediately after seeding so that the surface water was 15 mm high. After two days, the surface water was sucked up with a pipette for removal. Six containers were allotted for each condition, and the proportion of seedling establishment (proportion of individual plants that survived) was measured two weeks after seeding. It should be noted that in FIG. 20e, the horizontal axis represents the number of moles (mmol) of molybdenum that adhered per gram of dry seed. In FIG. 20e, the dots correspond to the numbers of moles of 0 (UNTREATED), 0.01, 0.02, 0.05, 0.1, 0.2, and 0.5 mmol, starting from the left. […]

Possibility of growth, Amount of molybdenum or tungsten added to seed (paddy seeds) [mmol/g]	Compound	seedling establishment (paddy rice [1]; sterilized soil, 20° C., regardless of sulfate ion concentration)	seedling establishment (paddy rice [1]; unsterilized soil, constant 20° C., sulfate ion concentration higher than 2 mM, after 21 days)	proportion of seedling establishment (paddy rice [1]; unsterilized soil, constant 30° C. or outdoor, sulfate ion concentration higher than 3 mM, after 21 days) [%]	proportion of seedling establishment (paddy rice [1]; unsterilized soil, sulfate ion concentration of 1 mM, regardless of the conditions (20° C., 30° C., outdoor), after 21 days)	sulfate ion concentration at which a blackened portion (ferric sulfide) appears around the seed (sulfide ion generation) [mM]	molybdenum amount leading to improvements in seedling establishment (paddy rice [2]; dry seeds coated with mixture with reduced iron (half the weight of dry seeds), 30° C., FIG. 19b) [mmol/g]	proportion of seedling establishment (paddy rice [2]; dry seeds, mixture of 0.1 mmol/g molybdenum oxide and 25 wt % calcium peroxide at 0.1 or less time the weight of dry seed, 30° C.) [%]	proportion of seedling establishment (paddy rice [2]; mixture of 0.1 mmol/g molybdenum oxide and 25 wt % calcium peroxide at 0.2 to 0.5 time the weight of dry seed, versus absence of molybdenum oxide)	proportion of seedling establishment (barley)	seedling establishment (paddy rice [3])	proportion of seedling establishment (wheat)	Inhibition of decay, Amount of molybdenum or tungsten added to seed (decay of paddy seeds) [mmol/g]	proportion of seedling establishment (soybean)
	N.N.O=S(=O)(O)O [sulfate ions, ammonium sulfate]	no decrease in seedling establishment	substantially no seedling establishment	≤ 10	drastic decreases in proportion of seedling establishment	≥ 0.91								
0.07	[O]=[Mo](=[O])=[O] [Molybdenum oxide, Molybdenum oxide (VI)]						≥ 0.5	≥ 40	higher proportion of seedling establishment	improvements in proportion of seedling establishment	obvious improvements in seedling establishment	improvements in proportion of seedling establishment	<0.01	improvements in proportion of seedling establishment
